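Briefly, cells in 96-well plates were exposed to five compound concentrations for 48 h, and endpoints were estimated by linear interpolation. At the TGI there is no net growth.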
Tests used:
Assay in all cases: inhibition of tumour cell growth, NCI panel, 48 h
786-0 renal = test system: 786-0 renal
A498 renal = test system: A498 renal
A549 NSCLC = test system: A549 NSCLC
ACHN renal = test system: ACHN renal
BT-549 breast = test system: BT-549 breast
CAKI-1 renal = test system: CAKI-1 renal
CCRF-CEM leukemia = test system: CCRF-CEM leukemia
COLO 205 colon = test system: COLO 205 colon
DU-145 prostate = test system: DU-145 prostate
EKVX NSCLC = test system: EKVX NSCLC
HCC-2998 colon = test system: HCC-2998 colon
HCT-116 colon = test system: HCT-116 colon
HCT-15 colon = test system: HCT-15 colon
HOP-62 NSCLC = test system: HOP-62 NSCLC
HS 578T breast = test system: HS 578T breast
HT29 colon = test system: HT29 colon
K-562 leukemia = test system: K-562 leukemia
KM12 colon = test system: KM12 colon
M14 melanoma = test system: M14 melanoma
MALME-3M melanoma = test system: MALME-3M melanoma
MCF7 breast = test system: MCF7 breast
MDA-MB-231 breast = test system: MDA-MB-231 breast
MDA-MB-435 = test system: MDA-MB-435
MDA-N = test system: MDA-N
MOLT-4 leukemia = test system: MOLT-4 leukemia
NCI-H226 lung = test system: NCI-H226 lung
NCI-H23 lung = test system: NCI-H23 lung
NCI-H460 lung = test system: NCI-H460 lung
NCI/ADR-RES ovarian = test system: NCI/ADR-RES ovarian
OVCAR-3 ovarian = test system: OVCAR-3 ovarian
OVCAR-4 ovarian = test system: OVCAR-4 ovarian
OVCAR-5 ovarian = test system: OVCAR-5 ovarian
OVCAR-8 ovarian = test system: OVCAR-8 ovarian
PC-3 prostate = test system: PC-3 prostate
RPMI-8226 leukemia = test system: RPMI-8226 leukemia
SF-268 CNS = test system: SF-268 CNS
SF-295 CNS = test system: SF-295 CNS
SF-539 CNS = test system: SF-539 CNS
SK-MEL-2 melanoma = test system: SK-MEL-2 melanoma
SK-MEL-28 melanoma = test system: SK-MEL-28 melanoma
SK-OV-3 ovarian = test system: SK-OV-3 ovarian
SN12C renal = test system: SN12C renal
SNB-19 CNS = test system: SNB-19 CNS
SNB-75 CNS = test system: SNB-75 CNS
SW-620 colon = test system: SW-620 colon
T-47D breast = test system: T-47D breast
U251 CNS = test system: U251 CNS
UACC-257 melanoma = test system: UACC-257 melanoma
UACC-62 melanoma = test system: UACC-62 melanoma
UO-31 renal = test system: UO-31 renal
HL-60(TB) leukemia = test system: HL-60(TB) leukemia
HOP-92 NSCLC = test system: HOP-92 NSCLC
IGROV1 ovarian = test system: IGROV1 ovarian
NCI-H522 lung = test system: NCI-H522 lung
RXF 393 renal = test system: RXF 393 renal
SK-MEL-5 melanoma = test system: SK-MEL-5 melanoma
SR leukemia = test system: SR leukemia
TK-10 renal = test system: TK-10 renal
LOX IMVI melanoma = test system: LOX IMVI melanoma

SMILES: O=C1c2ccccc2-c2c1c(-c1ccc([N+](=O)[O-])cc1)nc1ccc3ccccc3c21
- TGI (786-0 renal): > 100 µM
- TGI (A498 renal): > 100 µM
- TGI (A549 NSCLC): > 100 µM
- TGI (ACHN renal): > 100 µM
- TGI (BT-549 breast): > 100 µM
- TGI (CAKI-1 renal): > 100 µM
- TGI (CCRF-CEM leukemia): > 100 µM
- TGI (COLO 205 colon): > 100 µM
- TGI (DU-145 prostate): > 100 µM
- TGI (EKVX NSCLC): > 100 µM
- TGI (HCC-2998 colon): > 100 µM
- TGI (HCT-116 colon): > 100 µM
- TGI (HCT-15 colon): > 100 µM
- TGI (HOP-62 NSCLC): > 100 µM
- TGI (HS 578T breast): > 100 µM
- TGI (HT29 colon): > 100 µM
- TGI (K-562 leukemia): > 100 µM
- TGI (KM12 colon): > 100 µM
- TGI (M14 melanoma): > 100 µM
- TGI (MALME-3M melanoma): > 100 µM
- TGI (MCF7 breast): > 100 µM
- TGI (MDA-MB-231 breast): > 100 µM
- TGI (MDA-MB-435): > 100 µM
- TGI (MDA-N): > 100 µM
- TGI (MOLT-4 leukemia): > 100 µM
- TGI (NCI-H226 lung): > 100 µM
- TGI (NCI-H23 lung): > 100 µM
- TGI (NCI-H460 lung): > 100 µM
- TGI (NCI/ADR-RES ovarian): > 100 µM
- TGI (OVCAR-3 ovarian): > 100 µM
- TGI (OVCAR-4 ovarian): > 100 µM
- TGI (OVCAR-5 ovarian): > 100 µM
- TGI (OVCAR-8 ovarian): > 100 µM
- TGI (PC-3 prostate): > 100 µM
- TGI (RPMI-8226 leukemia): > 100 µM
- TGI (SF-268 CNS): > 100 µM
- TGI (SF-295 CNS): > 100 µM
- TGI (SF-539 CNS): > 100 µM
- TGI (SK-MEL-2 melanoma): > 100 µM
- TGI (SK-MEL-28 melanoma): > 100 µM
- TGI (SK-OV-3 ovarian): > 100 µM
- TGI (SN12C renal): > 100 µM
- TGI (SNB-19 CNS): > 100 µM
- TGI (SNB-75 CNS): > 100 µM
- TGI (SW-620 colon): > 100 µM
- TGI (T-47D breast): > 100 µM
- TGI (U251 CNS): > 100 µM
- TGI (UACC-257 melanoma): > 100 µM
- TGI (UACC-62 melanoma): > 100 µM
- TGI (UO-31 renal): > 100 µM

SMILES: CCOP(=O)(OCC)C(N)Cc1ccc(OC)c(OC)c1 (configuration not stated)
- TGI (786-0 renal): > 100 µM
- TGI (A498 renal): > 100 µM
- TGI (A549 NSCLC): > 100 µM
- TGI (ACHN renal): > 100 µM
- TGI (BT-549 breast): > 100 µM
- TGI (CAKI-1 renal): > 100 µM
- TGI (CCRF-CEM leukemia): > 100 µM
- TGI (COLO 205 colon): > 100 µM
- TGI (DU-145 prostate): > 100 µM
- TGI (HCC-2998 colon): > 100 µM
- TGI (HCT-116 colon): > 100 µM
- TGI (HCT-15 colon): > 100 µM
- TGI (HL-60(TB) leukemia): > 100 µM
- TGI (HOP-92 NSCLC): > 100 µM
- TGI (HT29 colon): > 100 µM
- TGI (IGROV1 ovarian): > 100 µM
- TGI (K-562 leukemia): > 100 µM
- TGI (KM12 colon): > 100 µM
- TGI (M14 melanoma): > 100 µM
- TGI (MALME-3M melanoma): > 100 µM
- TGI (MCF7 breast): > 100 µM
- TGI (MDA-MB-231 breast): > 100 µM
- TGI (MDA-MB-435): > 100 µM
- TGI (MDA-N): > 100 µM
- TGI (MOLT-4 leukemia): > 100 µM
- TGI (NCI-H226 lung): > 100 µM
- TGI (NCI-H23 lung): > 100 µM
- TGI (NCI-H460 lung): > 100 µM
- TGI (NCI-H522 lung): > 100 µM
- TGI (NCI/ADR-RES ovarian): > 100 µM
- TGI (OVCAR-3 ovarian): > 100 µM
- TGI (OVCAR-4 ovarian): > 100 µM
- TGI (OVCAR-5 ovarian): > 100 µM
- TGI (OVCAR-8 ovarian): > 100 µM
- TGI (PC-3 prostate): > 100 µM
- TGI (RPMI-8226 leukemia): > 100 µM
- TGI (RXF 393 renal): > 100 µM
- TGI (SF-268 CNS): > 100 µM
- TGI (SF-295 CNS): > 100 µM
- TGI (SF-539 CNS): > 100 µM
- TGI (SK-MEL-2 melanoma): > 100 µM
- TGI (SK-MEL-28 melanoma): > 100 µM
- TGI (SK-MEL-5 melanoma): > 100 µM
- TGI (SN12C renal): > 100 µM
- TGI (SNB-19 CNS): > 100 µM
- TGI (SNB-75 CNS): > 100 µM
- TGI (SR leukemia): > 100 µM
- TGI (SW-620 colon): > 100 µM
- TGI (T-47D breast): > 100 µM
- TGI (TK-10 renal): > 100 µM
- TGI (U251 CNS): > 100 µM
- TGI (UACC-257 melanoma): > 100 µM
- TGI (UACC-62 melanoma): > 100 µM
- TGI (UO-31 renal): > 100 µM

SMILES: CC(=O)Nc1sc([N+](=O)[O-])cc1S(=O)(=O)c1ccc(Cl)cc1
- TGI (786-0 renal): > 100 µM
- TGI (A498 renal): > 27.9 µM
- TGI (A549 NSCLC): > 54.6 µM
- TGI (ACHN renal): 10.6 µM
- TGI (BT-549 breast): > 24.8 µM
- TGI (CAKI-1 renal): > 20.8 µM
- TGI (CCRF-CEM leukemia): > 100 µM
- TGI (COLO 205 colon): 1.77 µM
- TGI (DU-145 prostate): > 40.8 µM
- TGI (EKVX NSCLC): > 100 µM
- TGI (HCC-2998 colon): 8.64 µM
- TGI (HCT-116 colon): 19.8 µM
- TGI (HCT-15 colon): > 95 µM
- TGI (HL-60(TB) leukemia): > 23.5 µM
- TGI (HOP-62 NSCLC): 3.99 µM
- TGI (HOP-92 NSCLC): 12.7 µM
- TGI (HS 578T breast): 17.2 µM
- TGI (HT29 colon): > 52.8 µM
- TGI (IGROV1 ovarian): > 100 µM
- TGI (K-562 leukemia): > 100 µM
- TGI (KM12 colon): 14.5 µM
- TGI (LOX IMVI melanoma): > 100 µM
- TGI (M14 melanoma): 9.79 µM
- TGI (MALME-3M melanoma): 15.3 µM
- TGI (MCF7 breast): 9.41 µM
- TGI (MDA-MB-231 breast): > 29.6 µM
- TGI (MDA-MB-435): > 53.3 µM
- TGI (MDA-N): > 100 µM
- TGI (MOLT-4 leukemia): > 50.2 µM
- TGI (NCI-H226 lung): 21.9 µM
- TGI (NCI-H23 lung): 14.1 µM
- TGI (NCI-H460 lung): 10.2 µM
- TGI (NCI-H522 lung): 11 µM
- TGI (NCI/ADR-RES ovarian): 64 µM
- TGI (OVCAR-3 ovarian): 16.1 µM
- TGI (OVCAR-4 ovarian): > 100 µM
- TGI (OVCAR-5 ovarian): > 100 µM
- TGI (OVCAR-8 ovarian): > 100 µM
- TGI (PC-3 prostate): 10.6 µM
- TGI (RPMI-8226 leukemia): > 100 µM
- TGI (RXF 393 renal): 13.5 µM
- TGI (SF-268 CNS): > 100 µM
- TGI (SF-295 CNS): 8.07 µM
- TGI (SF-539 CNS): 10.2 µM
- TGI (SK-MEL-2 melanoma): 8.54 µM
- TGI (SK-MEL-28 melanoma): > 100 µM
- TGI (SK-MEL-5 melanoma): 1.95 µM
- TGI (SK-OV-3 ovarian): 15.6 µM
- TGI (SN12C renal): > 100 µM
- TGI (SNB-19 CNS): > 100 µM
- TGI (SNB-75 CNS): 11.2 µM
- TGI (SW-620 colon): > 100 µM
- TGI (T-47D breast): 12.2 µM
- TGI (TK-10 renal): > 100 µM
- TGI (U251 CNS): > 35.5 µM
- TGI (UACC-257 melanoma): 16.8 µM
- TGI (UACC-62 melanoma): 22.4 µM
- TGI (UO-31 renal): 14.7 µM

Reference: PubChem BioAssay (NCI)
